How the values were obtained:
[1] = system: Influenza B (strain B/Lee/40); assay: Anti-influenza cytopathic effect (CPE) assay in MDCK cells, prophylactic regimen (Example 7); format: cell-based; parameters: key to CPE score: 1: Complete monolayer with few gaps or dead cells; 2: Some gaps in the monolayer; dead cells more evident; 3: Increasing number of gaps in the monolayer concurrent with dead cells; 4: Gaps widely distributed throughout the monolayer and of increasing size; 5: Large holes forming as smaller gaps merge; copious dead cells evident; 6: Monolayer integrity lost. Small islands of attached cells amid predominantly dead cells; details: for CPE score: Influenza B, MDCK, virus + DMSO control 4
U373 astroglioma cells [2] = assay: MTT (CIMA) cell proliferation assay, acute and chronic exposure (Example 3)
Procedure: (§5) Compound preparation: Stock solutions of test compounds were prepared in dimethylsulfoxide (DMSO) at 250 mg/ml. Working concentrations of 10 mg/ml were subsequently prepared from the stock solution and stored in 50 μl aliquots at −20° C. until used.
(§6) Cells and cell culture: Proof-of-principle studies in this example focused on two human brain cancer cell lines, namely SH-SY5Y neuroblastoma cells and U373 astroglioma cells. […] Both cells were maintained in (50:50) F12:DMEM medium supplemented with 10% fetal calf serum (FCS) and antibiotics in a humidified, 5% CO2 environment. Cells were passaged as required by trypsinization.
(§7) Assays conditions: The effects of the test compounds were assessed following acute and chronic exposure conditions. […] The test compounds were evaluated over a broad range of concentrations (0, 0.5, 1, 5, 10, 50, 100 and 250 μg/ml) with cells treated with equivalent concentrations of vehicle (DMSO) serving as controls.
(§8) Cell proliferation assay: Cell proliferation was assessed using a standard colorimetric indicator of metabolic activity (CIMA) assay. In this assay, the reduction of yellow tetrazolium salt (MTT) to purple formazan by mitochondrial reductase enzymes in viable cells was evaluated as a measure of metabolic activity to determine the extent of cell proliferation within a culture. The resulting colour change that conferred a change in absorbance was quantified using a spectrophotometer (λ=500-600). Samples were diluted as required to ensure that values obtained with the MTT assay fell within the linear range of the protocol. Qualitative microscopic evaluation of treated cultures was used to determine if overt cytotoxicity was present and to supplement the quantitative CIMA data.

MDCK cells = assay: Cytotoxicity assay (MTT/CIMA) in MDCK cells (Example 7)
[3] = system: all three transformed neuronal cell lines (IMR32, NG108, NSC34); assay: MTT (CIMA) cell proliferation assay (Example 4); details: 72 h post-treatment; 0.5-250 μg/ml
Procedure: as §5
(§9) Cells and cell culture: Three classes of cells were evaluated: 1) neuroblastoma cells, 2) neuroglioma cells, and 3) non-transformed human neurons (see below). All cells were maintained in appropriate culture medium supplemented with 10% fetal calf serum (FCS) and antibiotics in a humidified, 5% CO2 environment. Cells were passaged as required by trypsinization.
(§10) Assay conditions: The effects of the test compounds were assessed following acute and chronic exposure conditions. […] Each compound was evaluated over a broad range of concentrations (0, 0.5, 1, 5, 10, 50, 100 and 250 μg/ml) with cells treated with equivalent concentrations of vehicle (DMSO) serving as controls.
(§11) Cell proliferation assay: Cell proliferation was assessed using a standard colorimetric indicator of metabolic activity (CIMA) assay. In this assay, the reduction of yellow tetrazolium salt (MTT) to purple formazan by mitochondrial reductase enzymes in viable cells was evaluated as a measure of metabolic activity to determine the extent of cell proliferation within a culture. […]

[4] = system: SH-SY5Y neuroblastoma cells; assay: Long term exposure, tetrazole reduction (CIMA) proliferation assay (Example 6); format: cell-based; details: for AVERAGE (mean absorbance): SHSY5Y
Procedure: (§1) Compound I(a) was termed CMPD A (LI568-026-02).
(§2) Cells were passaged as required by trypsinization.
(§3) Assay conditions: The effects of the test compound were assessed under long term exposure conditions. Cells were propagated as normal in T25 flasks in complete culture media supplemented with comparatively low concentrations of the compound (0, 1 and 5 μg/ml) for 28 days. At various times post-exposure, changes in proliferation rates were assessed using a standard CIMA assay.
(§4) For the current study, cells that have been exposed to the compound were seeded in 96-well plates and proliferation rates measured over 24 and 72 h periods for comparison to that of similarly aged untreated cells.

U373 astroglioma cells [5] = assay: as above; format: cell-based
Procedure: as §1, §2, §3, §4

NSC34 motor neurons = assay: MTT (CIMA) cell proliferation assay (Example 4); details: 72 h post-treatment
Procedure: as §5, §9, §10, §11

[6] = system: SH-SY5Y neuroblastoma cells; assay: MTT (CIMA) cell proliferation assay, acute and chronic exposure (Example 3); details: SH-SY5Y
Procedure: as §5, §6, §7, §8

[7] = system: Influenza A (strain A/PR/8/34); assay: Anti-influenza cytopathic effect (CPE) assay in MDCK cells, prophylactic regimen (Example 7); format: cell-based; parameters: key to CPE score: 1: Complete monolayer with few gaps or dead cells; 2: Some gaps in the monolayer; dead cells more evident; 3: Increasing number of gaps in the monolayer concurrent with dead cells; 4: Gaps widely distributed throughout the monolayer and of increasing size; 5: Large holes forming as smaller gaps merge; copious dead cells evident; 6: Monolayer integrity lost. Small islands of attached cells amid predominantly dead cells; details: for CPE score: Influenza A, MDCK
[8] = both acute and chronic regimens

With `O=CCCCN1C(=O)c2ccccc2C1=O` [Compound I(a), 4-(1,3-dioxo-1,3-dihydro-2H-isoindol-2-yl)butanal] the “effect on CPE (summary in words)” value ([1]; Influenza B infection) was “mild to moderate reduction in CPE”, the CPE score ([1]; 24 hpi, 0.5 μg/ml) was 3 and the CPE score ([1]; 24 hpi, 1.0 μg/ml) was 3. For the same molecule, the CPE score ([1]; 24 hpi, 5.0 μg/ml) was 2, the CPE score ([1]; 24 hpi, 10 μg/ml) was 2 and the CPE score ([1]; 24 hpi, 25 μg/ml) was 4. It also gave a CPE score ([1]; 24 hpi, 50 μg/ml) of 4, a CPE score ([1]; 24 hpi, 100 μg/ml) of 5 and a CPE score ([1]; 48 hpi, 0.5 μg/ml) of 3. It also gave a CPE score ([1]; 48 hpi, 1.0 μg/ml) of 3, a CPE score ([1]; 48 hpi, 5.0 μg/ml) of 3 and a CPE score ([1]; 48 hpi, 10 μg/ml) of 3. The CPE score ([1]; 48 hpi, 25 μg/ml) was 4, the CPE score ([1]; 48 hpi, 50 μg/ml) was 5 and the CPE score ([1]; 48 hpi, 100 μg/ml) was 6. The “overt cell death / reductions in MTT activity” value (U373 astroglioma cells [2]; acute (24 h) and chronic (72 h) treatment, 0.5-250 μg/ml) was “Neither overt cell death nor significant reductions in MTT activity”, the LD50 (U373 astroglioma cells [2]; [8]) was “exceeds 0.25 mg/ml” and the “Toxicity (MTT), fold changes relative to vehicle controls” value (MDCK cells; 24 h exposure, 0.5 μg/ml) was 1.09 fold. The “Toxicity (MTT), fold changes relative to vehicle controls” value (MDCK cells; 24 h exposure, 1.0 μg/ml) was 1.24 fold, the “Toxicity (MTT), fold changes relative to vehicle controls” value (MDCK cells; 24 h exposure, 5.0 μg/ml) was 1.18 fold and the “Toxicity (MTT), fold changes relative to vehicle controls” value (MDCK cells; 24 h exposure, 10 μg/ml) was 1.15 fold. For the same molecule, the “Toxicity (MTT), fold changes relative to vehicle controls” value (MDCK cells; 24 h exposure, 25 μg/ml) was 1.06 fold, the “Toxicity (MTT), fold changes relative to vehicle controls” value (MDCK cells; 24 h exposure, 50 μg/ml) was 1.08 fold and the “Toxicity (MTT), fold changes relative to vehicle controls” value (MDCK cells; 24 h exposure, 100 μg/ml) was 0.98 fold. The “Toxicity (MTT), fold changes relative to vehicle controls” value (MDCK cells; 72 h exposure, 0.5 μg/ml) was 1.05 fold, the “Toxicity (MTT), fold changes relative to vehicle controls” value (MDCK cells; 72 h exposure, 1.0 μg/ml) was 0.99 fold and the “Toxicity (MTT), fold changes relative to vehicle controls” value (MDCK cells; 72 h exposure, 5.0 μg/ml) was 1.15 fold. The “Toxicity (MTT), fold changes relative to vehicle controls” value (MDCK cells; 72 h exposure, 10 μg/ml) was 1.01 fold, the “Toxicity (MTT), fold changes relative to vehicle controls” value (MDCK cells; 72 h exposure, 25 μg/ml) was 0.96 fold and the “Toxicity (MTT), fold changes relative to vehicle controls” value (MDCK cells; 72 h exposure, 50 μg/ml, decreases exceeding 25% considered toxic) was 0.71^3 fold. For the same molecule, the “Toxicity (MTT), fold changes relative to vehicle controls” value (MDCK cells; 72 h exposure, 100 μg/ml, decreases exceeding 25% considered toxic) was 0.56 fold, the “cytotoxicity (summary in words)” value (MDCK cells; higher concentrations (≧25 μg/ml)) was “toxicity associated with the compound itself” and the viability/proliferation [3] was “dose-dependent decreases in viability/proliferation”. For the same molecule, the “average decrease in activity” value ([4]; SH-SY5Y, long term exposure up to 28 days, 1 and 5 μg/ml) was “approximately 20%”, the “AVERAGE (mean absorbance)” value ([4]; 14 d incubation with 1 μg/ml, 24 h, control 0 μg/ml 0.492) was 0.508 and the “AVERAGE (mean absorbance)” value ([4]; 14 d incubation with 5 μg/ml, 24 h, control 0 μg/ml 0.492) was 0.388. For the same molecule, the “AVERAGE (mean absorbance)” value ([4]; 21 d incubation with 1 μg/ml, 24 h, control 0 μg/ml 0.307) was 0.311, the “AVERAGE (mean absorbance)” value ([4]; 21 d incubation with 1 μg/ml, 72 h, control 0 μg/ml 0.300) was 0.268 and the “AVERAGE (mean absorbance)” value ([4]; 21 d incubation with 5 μg/ml, 24 h, control 0 μg/ml 0.307) was 0.277. The “AVERAGE (mean absorbance)” value ([4]; 21 d incubation with 5 μg/ml, 72 h, control 0 μg/ml 0.300) was 0.269, the “AVERAGE (mean absorbance)” value ([4]; 28 d incubation with 1 μg/ml, 24 h, control 0 μg/ml 0.601) was 0.597 and the “AVERAGE (mean absorbance)” value ([4]; 28 d incubation with 1 μg/ml, 72 h, control 0 μg/ml 0.489) was 0.389. The “AVERAGE (mean absorbance)” value ([4]; 28 d incubation with 5 μg/ml, 24 h, control 0 μg/ml 0.601) was 0.531, the “AVERAGE (mean absorbance)” value ([4]; 28 d incubation with 5 μg/ml, 72 h, control 0 μg/ml 0.489) was 0.423 and the “AVERAGE (mean absorbance)” value (U373 astroglioma cells [5]; 14 d incubation with 1 μg/ml, 24 h, control 0 μg/ml 0.569) was 0.446. For the same molecule, the “AVERAGE (mean absorbance)” value (U373 astroglioma cells [5]; 14 d incubation with 5 μg/ml, 24 h, control 0 μg/ml 0.569) was 0.437, the “AVERAGE (mean absorbance)” value (U373 astroglioma cells [5]; 21 d incubation with 1 μg/ml, 24 h, control 0 μg/ml 0.617) was 0.575 and the “AVERAGE (mean absorbance)” value (U373 astroglioma cells [5]; 21 d incubation with 1 μg/ml, 72 h, control 0 μg/ml 0.547) was 0.502. The “AVERAGE (mean absorbance)” value (U373 astroglioma cells [5]; 21 d incubation with 5 μg/ml, 24 h, control 0 μg/ml 0.617) was 0.539, the “AVERAGE (mean absorbance)” value (U373 astroglioma cells [5]; 21 d incubation with 5 μg/ml, 72 h, control 0 μg/ml 0.547) was 0.478 and the “AVERAGE (mean absorbance)” value (U373 astroglioma cells [5]; 28 d incubation with 1 μg/ml, 24 h, control 0 μg/ml 0.567) was 0.510. The “AVERAGE (mean absorbance)” value (U373 astroglioma cells [5]; 28 d incubation with 1 μg/ml, 72 h, control 0 μg/ml 0.598) was 0.507, the “AVERAGE (mean absorbance)” value (U373 astroglioma cells [5]; 28 d incubation with 5 μg/ml, 24 h, control 0 μg/ml 0.567) was 0.461 and the “AVERAGE (mean absorbance)” value (U373 astroglioma cells [5]; 28 d incubation with 5 μg/ml, 72 h, control 0 μg/ml 0.598) was 0.514. For the same molecule, the “average decrease in activity” value (U373 astroglioma cells [5]; long term exposure up to 28 days, 1 and 5 μg/ml) was “approximately 20%”, the LD50 (NSC34 motor neurons) was < 0.25 mg/mL and the “decrease in MTT activity” value ([6]; acute treatment (24 h), 0.25 mg/ml) was “approximately 30%”. The “change in MTT activity” value ([6]; acute treatment (24 h), other concentrations evaluated (below 0.25 mg/ml)) was “No significant change in MTT activity”, the LD50 [6, 8] was “exceeds 0.25 mg/ml” and the “decrease in MTT activity” value ([6]; chronic treatment (72 h), 50 μg/ml) was 25%. The “decrease in MTT activity” value ([6]; chronic treatment (72 h), 100 μg/ml) was 25%, the “decrease in MTT activity” value ([6]; chronic treatment (72 h), 250 μg/ml) was 25% and the CPE score ([7]; 0.5 μg/ml, virus + DMSO control 3) was 1 ^5. The CPE score ([7]; 0.5 μg/ml, virus + DMSO control 4) was 4, the CPE score ([7]; 1.0 μg/ml, virus + DMSO control 3) was 1 and the CPE score ([7]; 1.0 μg/ml, virus + DMSO control 4) was 3. The CPE score ([7]; 5.0 μg/ml, virus + DMSO control 3) was 1, the CPE score ([7]; 5.0 μg/ml, virus + DMSO control 4) was 3 and the CPE score ([7]; 10 μg/ml, virus + DMSO control 3) was 1. The CPE score ([7]; 10 μg/ml, virus + DMSO control 4) was 3, the CPE score ([7]; 25 μg/ml, virus + DMSO control 3) was 1 and the CPE score ([7]; 25 μg/ml, virus + DMSO control 4) was 3. It also gave a CPE score ([7]; 50 μg/ml, virus + DMSO control 3) of 3, a CPE score ([7]; 50 μg/ml, virus + DMSO control 4) of 5 and a CPE score ([7]; 100 μg/ml, virus + DMSO control 3) of 4. For the same molecule, the CPE score ([7]; 100 μg/ml, virus + DMSO control 4) was 5 and the “effect on CPE (summary in words)” value ([7]; comparatively lower concentrations) was “mild to moderate reduction in CPE”.

Reference: patent publication US8916605B2, “Compounds and methods for treating cancer and viral infections” (priority 2009, dated 2014)
